Values belong to the compound of their own block, whether it stands above or below them. Calls of active or inactive are those of the source.
Key:
[1] = target: T1, Sentrin-specific protease 7 (Homo sapiens, UniProt Q9BQF6); assay: inhibition of human SENP7 cleavage activity – biochemical, luminescence, SAR follow-up (AID 504497); format: functional
T1 sequence (Q9BQF6 whole entry): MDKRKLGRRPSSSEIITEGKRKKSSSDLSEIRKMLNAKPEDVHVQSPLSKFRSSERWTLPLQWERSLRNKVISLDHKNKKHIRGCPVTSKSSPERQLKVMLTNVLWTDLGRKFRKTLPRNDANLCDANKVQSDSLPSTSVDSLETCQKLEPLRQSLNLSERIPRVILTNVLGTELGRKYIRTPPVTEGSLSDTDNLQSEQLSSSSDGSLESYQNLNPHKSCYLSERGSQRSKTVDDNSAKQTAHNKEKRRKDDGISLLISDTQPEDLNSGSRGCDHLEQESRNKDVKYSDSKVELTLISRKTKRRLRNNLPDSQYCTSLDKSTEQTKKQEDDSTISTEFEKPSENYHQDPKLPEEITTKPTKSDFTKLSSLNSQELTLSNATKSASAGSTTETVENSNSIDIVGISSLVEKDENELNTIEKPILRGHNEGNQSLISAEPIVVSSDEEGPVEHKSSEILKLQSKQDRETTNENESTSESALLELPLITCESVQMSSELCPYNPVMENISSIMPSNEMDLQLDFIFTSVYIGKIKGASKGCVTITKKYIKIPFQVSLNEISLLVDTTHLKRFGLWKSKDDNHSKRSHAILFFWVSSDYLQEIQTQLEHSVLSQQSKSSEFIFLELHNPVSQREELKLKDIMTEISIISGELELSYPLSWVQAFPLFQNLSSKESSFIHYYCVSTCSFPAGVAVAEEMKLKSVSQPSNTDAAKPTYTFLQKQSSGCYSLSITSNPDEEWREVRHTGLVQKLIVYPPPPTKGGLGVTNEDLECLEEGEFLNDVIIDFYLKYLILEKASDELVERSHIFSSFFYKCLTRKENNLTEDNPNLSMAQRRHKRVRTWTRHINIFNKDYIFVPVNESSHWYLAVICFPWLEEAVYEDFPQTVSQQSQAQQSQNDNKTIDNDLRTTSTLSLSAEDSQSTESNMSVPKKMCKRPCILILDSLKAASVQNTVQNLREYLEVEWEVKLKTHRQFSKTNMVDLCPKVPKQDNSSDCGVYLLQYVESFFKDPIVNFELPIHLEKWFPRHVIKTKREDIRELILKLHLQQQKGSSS

Caspase-3 = target: T2, Caspase-3 (Homo sapiens, UniProt P42574); assay: SAR Analysis of small molecule inhibitors of Sentrin-specific proteases (SENPs) using a Caspase-3 Selectivity assay. [Related pubchem assays (depositor defined):AID2540, AID2599, AID434973, AID489001]; format: functional
T2 sequence (P42574 whole entry): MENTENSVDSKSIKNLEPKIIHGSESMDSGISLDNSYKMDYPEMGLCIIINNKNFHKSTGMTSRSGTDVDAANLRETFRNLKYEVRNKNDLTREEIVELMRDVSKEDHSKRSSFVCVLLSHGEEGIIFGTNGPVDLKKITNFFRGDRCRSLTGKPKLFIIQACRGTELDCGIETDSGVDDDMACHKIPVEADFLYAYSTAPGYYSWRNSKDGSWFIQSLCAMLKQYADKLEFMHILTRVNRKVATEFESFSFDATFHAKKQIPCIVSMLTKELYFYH

[2] = target: T3, Sentrin-specific protease 6 (Homo sapiens, UniProt Q9GZR1); assay: SAR Analysis of small molecule inhibitors of Sentrin-specific protease 6 (SENP6) using a Luminescent assay. [Related pubchem assays (depositor defined):AID2582, AID2599]; format: functional
T3 sequence (Q9GZR1 whole entry): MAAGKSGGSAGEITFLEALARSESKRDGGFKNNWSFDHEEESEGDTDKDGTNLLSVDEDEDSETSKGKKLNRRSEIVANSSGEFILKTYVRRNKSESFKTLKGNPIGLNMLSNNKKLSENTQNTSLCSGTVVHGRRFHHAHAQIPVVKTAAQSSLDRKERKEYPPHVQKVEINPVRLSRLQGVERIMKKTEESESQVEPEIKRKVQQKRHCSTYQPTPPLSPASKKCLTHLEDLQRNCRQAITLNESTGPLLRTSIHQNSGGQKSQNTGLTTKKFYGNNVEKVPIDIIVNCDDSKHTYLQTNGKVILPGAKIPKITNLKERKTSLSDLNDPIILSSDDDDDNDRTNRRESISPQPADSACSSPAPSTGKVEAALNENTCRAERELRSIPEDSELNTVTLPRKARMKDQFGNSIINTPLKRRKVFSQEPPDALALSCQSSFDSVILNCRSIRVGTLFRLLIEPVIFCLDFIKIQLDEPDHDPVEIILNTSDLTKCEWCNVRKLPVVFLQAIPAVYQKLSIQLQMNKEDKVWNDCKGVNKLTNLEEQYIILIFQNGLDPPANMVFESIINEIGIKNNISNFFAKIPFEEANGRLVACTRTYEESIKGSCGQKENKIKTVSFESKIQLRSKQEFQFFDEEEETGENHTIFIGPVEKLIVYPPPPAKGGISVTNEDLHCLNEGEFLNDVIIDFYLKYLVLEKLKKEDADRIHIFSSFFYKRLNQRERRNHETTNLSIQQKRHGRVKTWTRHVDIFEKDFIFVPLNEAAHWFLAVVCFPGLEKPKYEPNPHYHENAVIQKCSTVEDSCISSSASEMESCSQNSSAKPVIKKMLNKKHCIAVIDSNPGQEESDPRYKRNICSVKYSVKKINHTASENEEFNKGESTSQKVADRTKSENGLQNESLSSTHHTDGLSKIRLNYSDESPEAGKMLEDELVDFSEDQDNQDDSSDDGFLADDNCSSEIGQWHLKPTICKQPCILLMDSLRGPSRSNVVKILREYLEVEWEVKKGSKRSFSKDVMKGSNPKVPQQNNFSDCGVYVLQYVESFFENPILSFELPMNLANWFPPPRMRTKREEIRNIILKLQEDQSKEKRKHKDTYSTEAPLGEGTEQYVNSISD

[3] = target: T4, Sentrin-specific protease 8 (Homo sapiens, UniProt Q96LD8); assay: inhibition of human SENP8 cleavage activity – biochemical, luminescence, SAR follow-up (AID 504501); format: functional
T4 sequence (Q96LD8 whole entry): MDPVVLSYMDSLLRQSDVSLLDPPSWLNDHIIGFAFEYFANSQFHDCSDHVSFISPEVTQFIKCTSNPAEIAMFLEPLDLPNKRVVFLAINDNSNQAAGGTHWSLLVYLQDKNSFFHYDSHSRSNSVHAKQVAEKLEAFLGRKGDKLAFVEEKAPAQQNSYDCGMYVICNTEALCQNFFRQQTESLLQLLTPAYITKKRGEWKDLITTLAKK

P388/ADR = assay: cells; format: functional; conditions: Mus musculus
SN12K1 = assay: cells; format: functional; conditions: Homo sapiens
P388 = assay: cells; format: functional; conditions: Mus musculus
[4] = blockers of HIV-1 ZM109 envelope-driven cell-cell fusion – HeLa effector, CEM target cells, luciferase, cherry-pick, dose response (AID 652058); format: functional, cell-based;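 also: luciferase signal from HIV-1 Env mediated cell-cell fusion of effector and target cells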
[5] = off-target signal loss in HeLa-CEM21 co-culture – HeLa F-luc CTL cells, cherry-picked, counter-screen for HIV-1 Env fusion inhibitor project, dose response (AID 652040); format: functional, cell-based;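 also: potency for signal decrease marking cytotoxic or nonspecific inhibition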
[6] = HIV-1 AD8 envelope cell-cell fusion blockers – cherry-pick, dose response (AID 652062); format: functional, cell-based;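 also: luciferase signal from cell-cell fusion driven by HIV-1 clade B AD8 Env; potency is for inhibitors of fusion seen as a drop in luminescence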
[7] = viability loss in CEM21 cells – cell-based, CellTiter-Glo luminescence, cherry-picked, cytotoxicity control for viral fusion inhibitor project, dose response (AID 652042); format: functional;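 also: potency for signal decrease meaning cytotoxicity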
[8] = target: Photoreceptor-specific nuclear receptor (Homo sapiens, UniProt Q9Y5X4); format: functional, cell-based;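 also: CHO-S cells with Gal4-NCOR and VP16-NR2E3 two-hybrid luciferase reporter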
Sequence of Photoreceptor-specific nuclear receptor (Q9Y5X4 whole entry, the tested form may be a part): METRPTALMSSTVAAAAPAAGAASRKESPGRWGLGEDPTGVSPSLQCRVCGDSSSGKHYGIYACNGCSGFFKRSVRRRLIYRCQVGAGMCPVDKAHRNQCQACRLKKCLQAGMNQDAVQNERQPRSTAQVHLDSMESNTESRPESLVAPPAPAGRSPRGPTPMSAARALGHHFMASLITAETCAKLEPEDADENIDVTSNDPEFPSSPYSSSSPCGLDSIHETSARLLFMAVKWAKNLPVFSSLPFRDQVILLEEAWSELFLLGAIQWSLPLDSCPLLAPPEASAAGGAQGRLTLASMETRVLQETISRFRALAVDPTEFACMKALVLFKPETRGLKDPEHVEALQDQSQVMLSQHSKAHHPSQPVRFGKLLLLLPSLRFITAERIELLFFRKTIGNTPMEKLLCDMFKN

[9] = viability of PTEN-deleted HCT116 cells – cell-based, HCT116 PTEN knockout, dose response (AID 1047); format: functional;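 also: HCT116 colon tumor cells with PTEN knocked out; cells exposed to compound for 60 hours before readout; potency for loss of cell viability measured by luminescence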
[10] = fluconazole-exposed Candida albicans growth modulators – fluorescence, retest, confirmation (AID 2467); format: functional, cell-based
[11] = NIH-3T3 fibroblast cytotoxicity, dose response, cytotoxicity control, cell-based, fluorescence, Alamar Blue, secondary assay (AID 2327); format: functional;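 also: NIH-3T3 mouse fibroblasts cultured with fluconazole at 8 µg/mL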
INS1 = assay: INS-1E survival protection against cytokine death – cell-based, luminescence, retest, dose response (AID 449756); format: functional; conditions: Rattus norvegicus;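 also: cell death triggered by IL-1 beta plus TNF-alpha plus IFN-gamma mixture; protective hits raise ATP signal compared with cytokine alone wells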
[12] = blockers of HIV-1 envelope-mediated cell-cell fusion – cherry-pick, dose response (AID 652057); format: functional, cell-based
[13] = viability of HCT116 lacking mutant beta-catenin – cell-based, human colon tumor, dose response (AID 1045); format: functional;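 also: HCT116 colon tumor cells with beta catenin knocked out; cells exposed to compound for 60 hours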
[14] = inhibition of ARNT PAS-B/TACC3 complex formation – biochemical, AlphaScreen, cherry-picked samples, confirmation (AID 651703); format: functional, Homo sapiens;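 also: His-tagged ARNT PAS-B domain paired with GST-TACC3 E629A dimer coactivator fragment; potency of inhibitors that break up the complex and lower AlphaScreen signal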
Galanin receptor type 3 = target: T5, Galanin receptor type 3 (Homo sapiens, UniProt O60755); assay: Fluorescence-based cell-based primary high throughput dose response assay to identify antagonists of the Galanin Receptor 3 (GalR3).; format: functional
T5 sequence (O60755 whole entry): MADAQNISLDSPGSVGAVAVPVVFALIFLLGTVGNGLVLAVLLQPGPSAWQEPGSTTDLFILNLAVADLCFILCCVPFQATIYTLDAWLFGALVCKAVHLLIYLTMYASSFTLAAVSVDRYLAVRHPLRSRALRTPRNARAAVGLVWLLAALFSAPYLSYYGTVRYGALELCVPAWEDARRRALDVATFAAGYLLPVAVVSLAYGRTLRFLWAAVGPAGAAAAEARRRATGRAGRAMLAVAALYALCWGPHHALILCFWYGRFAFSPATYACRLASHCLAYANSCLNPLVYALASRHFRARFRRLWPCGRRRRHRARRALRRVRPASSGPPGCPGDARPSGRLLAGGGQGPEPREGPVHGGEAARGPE

cells = format: functional, cell-based; conditions: HEK-CNG
[15] = target: SWI/SNF-related matrix-associated actin-dependent regulator of chromatin subfamily A member 2 (Homo sapiens, UniProt P51531); assay: Luminescence-based cell-based high throughput dose response assay to identify activators of the function of SWI/SNF related, matrix associated, actin dependent regulator of chromatin, subfamily a, member 2 (SMARCA2, BRM).; format: functional
Sequence of SWI/SNF-related matrix-associated actin-dependent regulator of chromatin subfamily A member 2 (P51531 whole entry): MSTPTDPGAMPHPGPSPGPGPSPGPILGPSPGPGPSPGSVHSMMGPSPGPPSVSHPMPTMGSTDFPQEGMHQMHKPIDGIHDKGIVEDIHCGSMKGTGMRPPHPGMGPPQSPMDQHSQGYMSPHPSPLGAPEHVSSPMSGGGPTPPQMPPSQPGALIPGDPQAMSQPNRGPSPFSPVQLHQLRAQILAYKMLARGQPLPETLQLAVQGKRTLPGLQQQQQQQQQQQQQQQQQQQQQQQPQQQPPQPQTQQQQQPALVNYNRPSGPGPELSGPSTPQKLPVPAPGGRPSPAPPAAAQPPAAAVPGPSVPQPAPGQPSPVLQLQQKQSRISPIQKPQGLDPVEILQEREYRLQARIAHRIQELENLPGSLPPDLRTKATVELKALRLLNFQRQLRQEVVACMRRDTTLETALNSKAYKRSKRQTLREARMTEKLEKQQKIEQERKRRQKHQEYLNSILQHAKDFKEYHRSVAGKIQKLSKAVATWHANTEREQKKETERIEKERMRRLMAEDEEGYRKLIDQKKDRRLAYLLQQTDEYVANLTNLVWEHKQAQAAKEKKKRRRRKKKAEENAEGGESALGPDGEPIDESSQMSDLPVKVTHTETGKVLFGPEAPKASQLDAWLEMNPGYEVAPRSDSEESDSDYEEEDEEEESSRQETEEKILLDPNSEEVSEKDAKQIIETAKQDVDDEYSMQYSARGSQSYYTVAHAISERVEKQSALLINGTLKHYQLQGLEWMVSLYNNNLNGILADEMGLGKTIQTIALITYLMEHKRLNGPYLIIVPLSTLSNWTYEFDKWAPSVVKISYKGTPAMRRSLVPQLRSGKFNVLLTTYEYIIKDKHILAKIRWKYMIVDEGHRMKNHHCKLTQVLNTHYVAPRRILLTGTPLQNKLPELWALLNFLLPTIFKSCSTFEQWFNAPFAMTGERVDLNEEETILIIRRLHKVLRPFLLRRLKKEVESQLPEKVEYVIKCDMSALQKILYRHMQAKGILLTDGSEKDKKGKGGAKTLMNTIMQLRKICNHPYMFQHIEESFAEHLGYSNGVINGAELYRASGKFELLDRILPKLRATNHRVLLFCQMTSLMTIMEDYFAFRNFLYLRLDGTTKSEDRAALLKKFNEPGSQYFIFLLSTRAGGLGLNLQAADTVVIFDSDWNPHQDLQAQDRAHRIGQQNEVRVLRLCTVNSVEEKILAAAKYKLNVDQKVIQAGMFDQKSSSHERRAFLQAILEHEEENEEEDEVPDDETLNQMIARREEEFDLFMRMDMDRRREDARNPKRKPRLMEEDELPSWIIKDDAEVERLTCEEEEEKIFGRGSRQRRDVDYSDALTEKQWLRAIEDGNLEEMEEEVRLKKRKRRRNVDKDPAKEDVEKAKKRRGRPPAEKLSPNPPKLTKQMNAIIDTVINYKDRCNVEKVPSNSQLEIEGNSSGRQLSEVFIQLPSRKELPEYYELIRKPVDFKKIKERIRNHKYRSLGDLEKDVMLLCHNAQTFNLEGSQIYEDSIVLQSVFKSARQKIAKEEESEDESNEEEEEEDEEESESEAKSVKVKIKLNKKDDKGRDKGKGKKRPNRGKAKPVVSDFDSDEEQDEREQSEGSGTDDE

[16] = Counterscreen for activators of the function of SWI/SNF related, matrix associated, actin dependent regulator of chromatin, subfamily a, member 2 (SMARCA2, BRM): Luminescence-based cell-based high throughput dose response assay to identify non-selective compounds using the VP16 reporter assay.; format: functional

- IC50 [1]: > 99 µM (inactive)
- IC50 (Caspase-3): > 99 µM (inactive)
- IC50 [2]: > 99 µM (inactive)
SMILES: COc1ccc(/C=N/Nc2nc(NCc3ccccc3)nc(N(C)C)n2)cc1Br
- IC50 [3]: > 99 µM (inactive)

SMILES: NC1(C(=O)O)CCc2ccc(N(CCCl)CCCl)cc2C1 (stereo unspecified)
- GI50 (P388/ADR): 10.9 µM (inactive)
- GI50 (SN12K1): 64.1 µM (inactive)
- GI50 (P388): 1.67 µM (inactive)

SMILES: Nc1ccc(O)cc1C(=O)OCC(=O)c1ccc(C2CCCCC2)cc1
- AC50 [4]: 0.865 µM (active)
- AC50 [5]: 40.9 µM (active)
- AC50 [6]: 2.09 µM (active)
- AC50 [7]: 2.3 µM (active)

- IC50 [8]: 1.25 µM (active)
SMILES: Cc1onc(-c2ccccc2Cl)c1C(=O)Nc1nc2c(s1)CCCC2

- IC50 [8]: 4.43 µM (active)
SMILES: O=C(Nc1ccc(Cn2cccn2)cc1)c1ccc(COc2ccccc2Br)cc1

SMILES: COc1cccc(CNCCc2c[nH]c3ccccc23)c1OCc1ccccc1F
- EC50 [9]: 5.56 µM (active)
- AC50 [4]: 25.6 µM (active)
- EC50 [10]: 1.5 µM (active)
- EC50 [11]: > 150 µM (inconclusive)
- AC50 (INS1): 8.08 µM (active)
- AC50 [12]: 3.52 µM (active)
- AC50 [5]: 23.2 µM (active)
- EC50 [13]: 4.65 µM (active)
- AC50 [6]: 7.5 µM (active)
- AC50 [7]: 9.93 µM (active)

- IC50 [1]: 32.9 µM (active)
- IC50 (Caspase-3): > 99 µM (inactive)
- IC50 [2]: 11 µM (active)
SMILES: C(/C=C/c1ccccc1)=N/Nc1cc(N2CCCC2)nc(N2CCCC2)n1
- IC50 [3]: 43.5 µM (active)

SMILES: CN(C)CCSc1nccc(-c2ccc(-c3ccnc(SCCN(C)C)n3)s2)n1
- GI50 (P388/ADR): 2.35 µM (inactive)
- GI50 (SN12K1): 11.1 µM (inactive)
- GI50 (P388): 1.04 µM (active)

SMILES: COc1ccc(OC)c(-c2cc(C(=O)N3CCN(c4ncccn4)CC3)c3ccccc3n2)c1
- AC50 [14]: 127 µM (active)

SMILES: Cc1n[nH]c(NCCO)c1[N+](=O)[O-]
- IC50 (Galanin receptor type 3): > 29.9 µM (inactive)
- EC50 (cells): > 29.9 µM (inactive)

SMILES: COc1cc2c(cc1OC)C(OC)N(C)c1c-2ccc2cc3c(cc12)OCO3 (stereo unspecified)
- GI50 (P388/ADR): 2.58 µM (inactive)
- GI50 (SN12K1): 0.652 µM (active)
- GI50 (P388): 0.667 µM (active)

SMILES: COc1nc(N)nc2nc[nH]c12
- GI50 (P388/ADR): 265 µM (inactive)
- GI50 (SN12K1): 383 µM (inactive)
- GI50 (P388): 339 µM (inactive)

- IC50 [1]: > 99 µM (inactive)
- IC50 (Caspase-3): > 99 µM (inactive)
- IC50 [2]: > 99 µM (inactive)
SMILES: CCOc1ccc(C(=O)Nc2ccc3ccccc3c2)cc1Br
- IC50 [3]: > 99 µM (inactive)

SMILES: CC1=Nn2c(nnc2-c2ccccn2)SC1
- AC50 [14]: 84.7 µM (active)

SMILES: O=C(c1noc2c1CCc1ccccc1-2)N1CCOCC1
- EC50 [15]: > 91.2 µM (inactive)
- EC50 [16]: > 91.2 µM (inactive)
